Assay results reported in US20110053900A1, “PROGESTERONE ANTAGONISTS SUCH AS CDB-4124 IN THE TREATMENT OF BREAST CANCER” (Repros Therapeutics inc, priority 2008, published 2011).

Tests used:
[1] = Animal weight during the study; type: in vivo; details: weighed weekly, 27-week study period
Source text: The weights of the control animals were compared to those receiving hormonal treatment to better assess toxicity, especially that due to CDB-4124. The animals were weighed weekly during the 27-week study period.

[2] = Serum corticosterone by ELISA; type: in vivo, rat; details: 20 or 10 mg/kg
Method: The animals were assessed three times for their levels of progesterone: initially, when they were about to go on treatment; a second time after 21 days of treatment; and finally after treatment at sacrifice which was 2-4 days after the last s.c. injection. All blood samples were taken by heart puncture; serum was prepared and held frozen at −40° C. The levels of the steroid hormones progesterone, cortisol, and corticosterone were determined by ELISA.
The concentrations of steroid hormones were determined three times during the study: before the beginning of treatments, after 21 days of treatment and finally after treatment at sacrifice which was 2-4 days after the last s.c. injection. All samples were taken by heart puncture. Serum was obtained and held frozen at −40° C. The levels of steroid hormones were determined by ELISA.
Corticosterone is the most abundant glucocorticoid in rats. The effects of the SPRMs on cortisol may be secondary to strong effects on corticosterone. […] The levels of corticosterone were 10-40 times higher than the levels of cortisol. However, almost no difference between groups with respect to mean corticosterone levels was observed. […] There was no statistical difference in levels of corticosterone between animals with tumors and without tumors at either 21-days (p=0.94, t-test, two-tailed) or at sacrifice (p=0.37, t-test, two-tailed).

[3] = target: T1, glucocorticoid receptor (rbGR) (Oryctolagus cuniculus, UniProt P59667); experiment: Glucocorticoid receptor binding; design: species or system rabbit
T1 construct: cytosol containing PR or GR were prepared in TEGMD buffer; from tissue; host or cells: thymus of estradiol-primed immature rabbits (cytosol)
T1 sequence (P59667 1-772): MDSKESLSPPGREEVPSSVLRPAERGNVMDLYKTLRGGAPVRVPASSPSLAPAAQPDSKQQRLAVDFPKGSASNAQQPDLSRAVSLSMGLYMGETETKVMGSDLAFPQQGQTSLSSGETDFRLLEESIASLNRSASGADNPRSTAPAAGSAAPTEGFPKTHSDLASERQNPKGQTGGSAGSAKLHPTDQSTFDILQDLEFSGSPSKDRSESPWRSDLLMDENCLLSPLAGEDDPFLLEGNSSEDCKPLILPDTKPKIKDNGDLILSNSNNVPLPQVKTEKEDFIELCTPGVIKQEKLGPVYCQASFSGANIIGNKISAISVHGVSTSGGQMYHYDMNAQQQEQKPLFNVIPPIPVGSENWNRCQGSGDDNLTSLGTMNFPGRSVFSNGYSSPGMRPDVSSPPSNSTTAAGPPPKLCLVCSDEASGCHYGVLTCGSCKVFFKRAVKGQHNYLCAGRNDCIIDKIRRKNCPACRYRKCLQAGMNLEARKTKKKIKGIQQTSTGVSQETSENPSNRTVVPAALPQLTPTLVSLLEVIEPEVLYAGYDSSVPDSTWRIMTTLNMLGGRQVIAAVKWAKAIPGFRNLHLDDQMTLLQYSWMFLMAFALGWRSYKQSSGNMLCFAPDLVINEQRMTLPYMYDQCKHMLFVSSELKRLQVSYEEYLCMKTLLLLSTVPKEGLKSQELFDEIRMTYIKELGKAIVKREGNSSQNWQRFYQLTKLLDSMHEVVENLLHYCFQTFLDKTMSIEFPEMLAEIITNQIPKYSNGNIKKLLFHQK
Method: Certain antiprogestins were tested in receptor-binding assays for their ability to bind rabbit progesterone receptor (rbPR) and glucocorticoid receptor (rbGR). […] For PR binding, the cytosol was incubated with 6 nM 1,2-[^3H]progesterone (50.0 Ci/mmole) and competitors were added at concentrations from 2 to 100 nM. For binding to GR, the cytosol was incubated with 6 nM 6,7-[^3H]-dexamethasone (40 Ci/mmol) and test compounds were added at concentrations from 20 to 100 nM. After overnight incubation at 4° C., bound and unbound [^3H] steroids were separated by addition of dextran-coated charcoal and centrifugation at 2100×g for 15 min at 4
C. Supernatants containing the [3H]-steroid receptor complexes were decanted into vials containing 4 ml Optifluor (Packard Instrument Co.), vortexed, equilibrated in a liquid scintillation counter for 30 minutes and then counted for 2 minutes. […] The standards for the PR and GR assays were unlabeled progesterone and dexamethasone, respectively.

estrogen receptor (ER) = experiment: Expression of estrogen receptor in tumors (IHC); type: in vivo, rat; details: 10 mg/kg
Method: (§1) The tumors that were evaluated for proliferation and apoptosis were also assessed for expression of estrogen and progesterone receptors by immunohistochemistry (IHC). The percentage of cells positive for ER and PR was determined and analyzed. Tumors were grouped into four different categories: tumors with 0% of cells expressing ER, tumors with 10% of cells expressing ER, tumors with 15 to 30% of cells expressing ER and tumors with 30-50% of cells expressing ER. In general, untreated tumors consistently expressed ER. Out of 12 tumors analyzed, all 12 expressed ER. Four out of these 12 tumors contained 30-50% ER-positive cells.

[4] = system: progesterone receptor (PR); experiment: Expression of progesterone receptor in tumors (IHC); type: in vivo, rat; details: 10 mg/kg
Method: as §1
Untreated tumors consistently expressed PR (12/12 tumors). In general, untreated tumors expressed both receptors, ER and PR, therefore it is possible that many malignant tumors are expressors of these two transcription factors. […] In general, long term treatment with CDB-4124 tends to drive down the level of PR in tumors, whereas progesterone tends to work in the opposite direction. Thus, tumors maintain progesterone responsiveness in the presence of progesterone.

SMILES	toxicity by animal weight, treated vs. control (in words) [1]	effect on serum corticosterone (in words) [2]	anti-glucocorticoid receptor activity / glucocorticoid receptor binding (in words) [3]	number of cells expressing ER in tumors (in words) (estrogen receptor (ER))	PR expression in tumors (in words) [4]
COCC(=O)[C@@]1(OC(C)=O)CC[C@H]2[C@@H]3CCC4=CC(=O)CCC4=C3[C@@H](c3ccc(N(C)C)cc3)C[C@@]21C [CDB-4124, 21-methoxy-17α-acetoxy-11β-(4 N,N-dimethylaminophenyl)-19-norpregna-4,9-diene-3,20-dione]	not toxic, even at a high dose level	no strong effect			
CC#C[C@]1(O)CC[C@H]2[C@@H]3CCC4=CC(=O)CCC4=C3[C@@H](c3ccc(N(C)C)cc3)C[C@@]21C [RU 486, mifepristone, reference compound]			moderately active in glucocorticoid receptor binding	lowered the number of cells that express ERs	neutral for PR
